Measured values from publication PMC4240912, “Multifaceted interplay between lipophilicity, protein interaction and luminescence parameters of non-intercalative ruthenium(II) polypyridyl complexes controlling cellular imaging and cytotoxic properties” (Journal of Biological Inorganic Chemistry, 2014).
Read-outs that look alike come from different tables or passages of the source.

What was measured:
[1] = system: Calf thymus deoxyribonucleic acid; assay: DNA absorption titration (intrinsic DNA-binding constant); conditions: [Ru] = 10 µM, 0.05 M Tris/HCl pH 7.4, 37 °C
Procedure: Calf thymus deoxyribonucleic acid was purchased from Sigma-Aldrich and its stock solution was prepared by dissolving of solid DNA in water. DNA concentrations per nucleotide were determined by absorption spectroscopy using the molar absorption coefficient of 6,600 M^−1cm^−1 at the wavelength of 260 nm. DNA-binding experiments were performed in 0.05 M Tris/HCl buffer (pH 7.4) at 37 °C. […] Ruthenium–DNA solutions were allowed to incubate for 5 min before the spectra were recorded. The intrinsic DNA-binding constant was calculated from the following Eq. [4]. DNA/εa-εf=DNA/εa-εf+1/Kbεb-εf, where [DNA] is the total DNA concentration in nucleotides, ε a, ε b, ε f are the apparent absorption coefficients of A/[ruthenium complex] of the MLCT absorption band at a given DNA concentration, fully bound and free ruthenium complex, respectively, K b is binding constant.
To be submitted to Journal of Biological Inorganic Chemistry intercalation.[4] The hypochromism and batochromism at MLCT bands is found usually higher for other reported polypyridyl DNA intercalative Ru(II) complexes.[5-8] To assess this interaction the intrinsic DNA-binding constant was calculated from the following equation […]
where [DNA] is the total DNA concentration in nucleotides, εa, εb, εf are the apparent absorption coefficients of A/[ruthenium complex] of the MLCT absorption band at a given DNA concentration, fully bound and free ruthenium complex, respectively, Kb is binding […]
isosbestic points and gradual decrease of the absorption of MLCT bands. This observation […]
rather week interaction with DNA it is not further discussed.
Fig. S3. Changes in absorption spectra of [Ru(dip)2(CH3bpy-DCU)]2+ and [Ru(dip)2(CH3bpy-CH3)]2+ after addition of ct-DNA. Experimental conditions: [Ru] = 10 μM; Tris/HCl pH 7.4, T = 37°C, A. [DNA] = 0 – 2 μM; B. [DNA] = 5 – 120 μM. […]

[2] = system: 4T1 breast cancer cell line; assay: Alamar Blue cell viability, 4T1; format: cell-based; conditions: 4T1, 24 h incubation
Procedure: 4T1 breast cancer cell line was cultured in RPMI-1640 (Gibco Invitrogen) with 10 % fetal bovine serum (FBS, the bovine serum albumin is a major component), 1 % penicillin and streptomycin and 0.2 % fungizone. Cells were routinely cultured at 37 °C in a humidified incubator in 5 % CO2 atmosphere. Cell viability was measured using Alamar Blue assay. Cells were seeded on 96-well plate with density of 10^4 cells per cm^2 and cultured for 24 h in medium with or without 2 % serum. Then cells were incubated with various concentrations of ruthenium compounds for 24 h in the dark. All used ruthenium complexes were freshly diluted in DMSO and then added to the appropriate medium to obtain the applied concentrations. The final DMSO concentration was kept constant at 0.05 % (v/v). Next cells were washed with PBS and incubated in AlamarBlue solution (21 times diluted in PBS) for 3 h. Alamar Blue test is based on the reduction of blue and non-fluorescent subtract (resazurin) to a pink and highly fluorescent product (resorufin) by the alive cells. Extract mechanism of the reduction is still unknown, but it is postulated that reduction occurs by mitochondrial or cytoplasmic enzymes, such as NADH dehydrogenase or diaphorase. It is still not known whether this process occurs intracellularly, at the plasma membrane surface or just in the medium as a chemical reaction. The cell viability was quantified at 605 nm using 560 nm excitation light (VICTOR 3V multilabel plate readers, PerkinElmer). Experiments were performed in triplicates and each experiment was performed at least three times to get the mean values ± standard deviation. The viability was calculated with regard to the untreated cells control. The IC50 values were determined using Hill equation (Origin 9.0): y=y0+y100-y0c^H/IC50^H+c^H

[3] = system: 4T1 cells; assay: Ruthenium uptake measured by ICP-MS; format: cell-based; conditions: 4T1, [Ru-complex] = 2 µM, 24 h
Procedure: Cells were seeded on a 6-well plate with a density of 3 × 10^5 cells per cm^2. 24 h after the incubation ruthenium complexes were added at 2 µM concentration. Cells were incubated in medium without serum for 24 h. After incubation cells were washed twice with PBS, detached by trypsin (trypsin/EDTA from Gibco) treatment, diluted in PBS and counted. Cells were digested in concentrated nitric acid overnight at room temperature and then diluted with water. The ruthenium content of the sample was determined by the inductively coupled plasma mass spectrometry (ICP-MS). Results were calculated as ruthenium concentration per cell (assuming the average volume of cell was 1.7 pL [31]).

[4] = aqueous solution, ref [11], cited from earlier work
[5] = system: 4T1 cells; assay: Ruthenium uptake / cell luminescence measured by flow cytometry; format: cell-based; conditions: 4T1, [Ru-complex] = 2 µM, 24 h, medium without or with serum (2 %)
Procedure: 4T1 cells were seeded in a 24-well plate with a density of 2 × 10^5 cells per cm^2. 24 h after the seeding Ru(II) compounds were added at 2 µM concentration and incubated for 24 h in medium with or without serum (2 %). Then cells were washed with PBS, detached by trypsin treatment and analyzed by BDLSR cytometer with an excitation wavelength of 488 nm and an emission wavelength of 575 ± 13 nm.

[6] = biological target: human serum albumin (HSA) (Homo sapiens, UniProt P02768); assay: Luminescence quantum yield and lifetime in the presence of HSA
human serum albumin (HSA), sequence (P02768 25-609): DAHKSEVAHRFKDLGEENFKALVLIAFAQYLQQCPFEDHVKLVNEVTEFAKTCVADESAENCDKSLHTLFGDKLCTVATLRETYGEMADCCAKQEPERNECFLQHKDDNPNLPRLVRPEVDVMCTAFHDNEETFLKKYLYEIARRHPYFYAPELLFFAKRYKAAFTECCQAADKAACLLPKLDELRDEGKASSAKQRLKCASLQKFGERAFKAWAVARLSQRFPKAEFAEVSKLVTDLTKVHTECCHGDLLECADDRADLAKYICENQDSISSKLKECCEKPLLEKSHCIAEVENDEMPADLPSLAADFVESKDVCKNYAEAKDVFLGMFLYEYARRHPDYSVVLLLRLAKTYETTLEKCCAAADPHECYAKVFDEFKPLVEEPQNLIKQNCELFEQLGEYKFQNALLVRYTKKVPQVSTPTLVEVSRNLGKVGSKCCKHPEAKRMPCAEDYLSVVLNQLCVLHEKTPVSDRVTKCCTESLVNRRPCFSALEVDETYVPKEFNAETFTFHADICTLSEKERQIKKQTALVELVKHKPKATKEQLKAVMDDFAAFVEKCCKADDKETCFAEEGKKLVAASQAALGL
Procedure: The protein stock solution was prepared by dissolving human serum albumin (HSA) in water and its concentration was determined spectrophotometrically from the molar absorptivity of 4.4 × 10^4 cm^−1 M^−1 at 280 nm. The emission spectra were recorded between 305 and 500 nm upon excitation at 295 nm resulting in selective excitation of tryptophan residue of HSA. The average of three scans was subjected to smoothing and the fluorescence intensities were corrected due to dilution effects. Protein-binding experiments were conducted by measuring fluorescence spectra of protein solution (1 μM) in the presence of different amounts of ruthenium compounds (0–10 μM) in PBS buffer pH 7.4 at 37 °C. Ru–protein solutions were allowed to incubate for 5 min before the emission spectra were recorded. The quantum yield and lifetime of luminescence for ruthenium complexes in the present of HSA (1 μM) was measured using the same procedure as described for ruthenium complexes alone (the HSA/Ru-complex ratio is given in the figure caption).

Compound | K b, binding constant for formation of DNA-ruthenium(II) polypyridyl complex adducts [1] | IC50 ([2]; medium with serum (2 %)) [µM] | IC50 ([2]; medium without serum) [µM] | relative ruthenium accumulation in cells [3] | τ, luminescence lifetime ([4]; air-equilibrated conditions) [ns] | φ, quantum yield of luminescence ([4]; air-equilibrated conditions) | τ, luminescence lifetime ([4]; deoxygenated conditions) [µs] | φ, quantum yield of luminescence ([4]; deoxygenated conditions) | luminescence of cells (flow cytometry) [5] | φ, quantum yield of luminescence ([6]; PBS pH 7.4, [HSA]/[Ru] = 1) | φ, quantum yield of luminescence ([6]; PBS pH 7.4, in the absence of HSA)
Cc1ccnc(-c2cc(C)ccn2)c1.[Ru+2].c1ccc(-c2ccnc3c2ccc2c(-c4ccccc4)ccnc23)cc1.c1ccc(-c2ccnc3c2ccc2c(-c4ccccc4)ccnc23)cc1 [[Ru(dip)2(CH3bpy-CH3)]^2+] | 0.53 ± 0.03 ×10^5 M^−1 | 9.32 ± 1.37 | 4.9 ± 0.3 | – | – | – | – | – | – | – | –
Cc1ccnc(-c2cc(C(=O)[O-])ccn2)c1.[Ru+2].c1ccc(-c2ccnc3c2ccc2c(-c4ccccc4)ccnc23)cc1.c1ccc(-c2ccnc3c2ccc2c(-c4ccccc4)ccnc23)cc1 [[Ru(dip)2(CH3bpy-COO)]^+] | 1.05 ± 0.15 ×10^5 M^−1 | 13.9 ± 3 | 8.66 ± 1.47 | much smaller accumulation than the rest of the studied complexes | – | – | – | – | – | – | –
[Ru+2].c1ccc(-c2ccccn2)nc1.c1ccc(-c2ccnc3c2ccc2c(-c4ccccc4)ccnc23)cc1.c1ccc(-c2ccnc3c2ccc2c(-c4ccccc4)ccnc23)cc1 [[Ru(dip)2(bpy)]^2+] | 0.82 ± 0.01 ×10^5 M^−1 | 13.6 ± 1.75 | 6.79 ± 1.09 | – | – | – | – | – | – | – | –
O=[N+]([O-])c1nccn1CCCc1ccnc(-c2ccccn2)c1.[Ru+2].c1ccc(-c2ccnc3c2ccc2c(-c4ccccc4)ccnc23)cc1.c1ccc(-c2ccnc3c2ccc2c(-c4ccccc4)ccnc23)cc1 [[Ru(dip)2(bpy-NitroIm)]^2+] | 0.68 ± 0.01 ×10^5 M^−1 | 18.8 ± 1.29 | 10.6 ± 1.05 | – | 810 ± 10 | 0.0103 ± 0.0004 | 1.91 ± 0.01 | 0.0341 ± 0.0004 | – | – | –
[Ru(dip)2(1,3-dicyclohexyl-1-[4-carbonyl-(4′-methyl-2,2′-bipyridyl)]-urea)]Cl2 [[Ru(dip)2(CH3bpy-DCU)]^2+] | 0.60 ± 0.02 ×10^5 M^−1 | 9.01 ± 1.33 | 4.71 ± 0.18 | highest accumulation | – | – | – | – | highest luminescence | 0.0472 | 0.0076
